Source: patent publication US20020155192A1, “Yeast transport isoforms” (priority 2000, published 2002)

What was measured:
Assay type in all cases: biochemical
Odc1p [1] = target: T1, Odc1p (Saccharomyces cerevisiae, UniProt Q03028); test: Effect of inhibitors and external compounds on the [14C]oxoglutarate/oxoglutarate exchange by proteoliposomes reconstituted with Odc1p; conditions: Odc1p; for Inhibition (%) of [14C]oxoglutarate/oxoglutarate exchange: 20 mM internal oxoglutarate, 0.4 mM [14C]oxoglutarate, 45 seconds, inhibitors 4 mM, except mercurials 10 μM, carboxyatractyloside 0.1 mM, N-ethylmaleimide and α-cyanocinnamate 2 mM; for inhibition of [14C]oxoglutarate/oxoglutarate exchange (in words): Table III
T1 construct: made in house; host or cells: S. cerevisiae odc1Δodc2Δ (YPH499 background) carrying pYES2-based pODC1; purified from mitochondria on Ni-NTA agarose
T1 sequence (Q03028 1-310): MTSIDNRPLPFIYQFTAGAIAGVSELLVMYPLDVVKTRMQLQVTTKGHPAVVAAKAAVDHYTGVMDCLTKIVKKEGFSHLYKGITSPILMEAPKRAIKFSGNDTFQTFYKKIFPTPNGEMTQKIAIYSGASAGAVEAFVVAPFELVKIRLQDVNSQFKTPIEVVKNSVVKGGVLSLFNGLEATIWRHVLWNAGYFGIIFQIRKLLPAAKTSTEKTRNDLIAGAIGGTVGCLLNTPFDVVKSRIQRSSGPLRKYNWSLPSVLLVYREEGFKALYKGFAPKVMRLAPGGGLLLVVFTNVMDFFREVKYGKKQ

Odc2p = target: T2, Odc2p (Saccharomyces cerevisiae, UniProt Q99297); test: Effect of inhibitors and external compounds on the [14C]oxoglutarate/oxoglutarate exchange by proteoliposomes reconstituted with Odc2p; conditions: Odc2p; for inhibition of [14C]oxoglutarate/oxoglutarate exchange (in words): Table III
T2 construct: made in house; host or cells: S. cerevisiae odc1Δodc2Δ (YPH499 background) carrying pYES2-based pODC2; purified from mitochondria on Ni-NTA agarose
T2 sequence (Q99297 1-307): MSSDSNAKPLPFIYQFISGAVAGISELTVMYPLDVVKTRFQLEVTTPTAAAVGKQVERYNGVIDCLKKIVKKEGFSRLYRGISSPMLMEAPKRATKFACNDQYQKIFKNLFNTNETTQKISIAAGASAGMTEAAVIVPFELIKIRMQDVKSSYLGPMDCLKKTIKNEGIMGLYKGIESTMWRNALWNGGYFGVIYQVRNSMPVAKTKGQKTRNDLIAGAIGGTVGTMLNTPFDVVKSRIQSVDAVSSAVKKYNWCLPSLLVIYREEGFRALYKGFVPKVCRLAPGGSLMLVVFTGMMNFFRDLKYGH

Odc1p [2] = target: T1, Odc1p; test: Efflux of [14C]oxoglutarate from proteoliposomes reconstituted with recombinant Odc1p; conditions: 10 mM oxoglutarate with 30 mM pyridoxal 5′-phosphate and 10 mM bathophenanthroline added together
Protocol: FIG. 4. Efflux of [^14C]oxoglutarate from proteoliposomes. Proteoliposomes were reconstituted with recombinant Odc1p in the presence of 20 mM oxoglutarate, and then the internal substrate pool was labelled by carrier-mediated exchange equilibration. After removal of external substrate by Sephadex G-75 chromatography, the efflux of [^14C]oxoglutarate was started by adding buffer F alone (●) or 10 mM oxoglutarate (▪), or 10 mM oxoglutarate, 30 mM pyridoxal 5′-phosphate and 10 mM bathophenanthroline (□) in the same buffer.
External substrate was removed from proteoliposomes on a Sephadex G-75 column preequilibrated with buffer F (50 mM NaCl and 10 mM PIPES, pH 7.0). […] The external radioactivity was removed on Sephadex G-75 and the internal radioactivity was measured. […] The initial rate of transport was calculated in mmol/min per g protein from the time course of isotope equilibration (13). […] For efflux measurements, the internal substrate pool of the proteoliposomes was made radioactive by carrier-mediated exchange equilibration (13) with 0.1 mM [^14C]oxoglutarate added at high specific radioactivity. After 60 min, the residual external radioactivity was removed by passing the proteoliposomes again through a column of Sephadex G-75. […]

Structure (SMILES) | Inhibition (%) of [14C]oxoglutarate/oxoglutarate exchange (Odc1p [1]) [%] | inhibition of [14C]oxoglutarate/oxoglutarate exchange (in words) (Odc1p [1]) | inhibition of [14C]oxoglutarate/oxoglutarate exchange (in words) (Odc2p) | effect on efflux of [14C]oxoglutarate induced by external oxoglutarate (in words) (Odc1p [2]) | Inhibition (%) of [14C]oxoglutarate/oxoglutarate exchange (Odc2p; 20 mM internal oxoglutarate, 0.4 mM [14C]oxoglutarate, 45 seconds, inhibitors 4 mM, except mercurials 10 μM, carboxyatractyloside 0.1 mM, N-ethylmaleimide and α-cyanocinnamate 2 mM) [%]
Cc1ncc(COP(=O)(O)O)c(C=O)c1O [Pyridoxal 5′-phosphate] | 92 | inhibited strongly | inhibited strongly | prevented completely | –
c1ccc(-c2ccnc3c2ccc2c(-c4ccccc4)ccnc23)cc1 [Bathophenanthroline] | 97 | inhibited strongly | inhibited strongly | prevented completely | 89
